Experiment: ICH stability study of psilocybin batches (appearance, water content, purity, assay)
Conditions: for Chemical Purity By HPLC / Total Impurities / Water content by loss on drying: listed as GM764B

CN(C)CCc1c[nH]c2cccc(OP(=O)(O)O)c12 [Batch GM764B]
Appearance (T = 0): An off white solid.
Assay by 1H-NMR (T = 0): 97% ^w/w % w/w
Impurities by HPLC: RRT 0.86 (T = 0): 0.05%
Impurities by HPLC: RRT 1.46 (T = 0): 0.05%
Impurities by HPLC: RRT 1.59 (Psilocin) (T = 0): 0.37%
Chemical Purity By HPLC (T = 0): 99.24%
Total Impurities (T = 0): 0.76%
Water content by loss on drying (T = 0): 0.86% ^w/w % w/w
Appearance (T = 1 month, 2-8° C.): An off white solid.
Assay by 1H-NMR (T = 1 month, 2-8° C.): 99% ^w/w % w/w
Impurities by HPLC: RRT 0.86 (T = 1 month, 2-8° C.): 0.05%
Impurities by HPLC: RRT 1.46 (T = 1 month, 2-8° C.): 0.09%
Impurities by HPLC: RRT 1.59 (Psilocin) (T = 1 month, 2-8° C.): 0.35%
Chemical Purity By HPLC (T = 1 month, 2-8° C.): 99.24%
Total Impurities (T = 1 month, 2-8° C.): 0.76%
Water content by loss on drying (T = 1 month, 2-8° C.): 0.35% ^w/w % w/w
Appearance (T = 1 month, 25° C./60% RH): An off white solid.
Assay by 1H-NMR (T = 1 month, 25° C./60% RH): 98% ^w/w % w/w
Impurities by HPLC: RRT 0.86 (T = 1 month, 25° C./60% RH): 0.05%
Impurities by HPLC: RRT 1.46 (T = 1 month, 25° C./60% RH): 0.10%
Impurities by HPLC: RRT 1.59 (Psilocin) (T = 1 month, 25° C./60% RH): 0.34%
Chemical Purity By HPLC (T = 1 month, 25° C./60% RH): 99.22%
Total Impurities (T = 1 month, 25° C./60% RH): 0.78%
Water content by loss on drying (T = 1 month, 25° C./60% RH): 0.20% ^w/w % w/w
Appearance (T = 1 month, 40° C./75% RH): An off white solid.
Assay by 1H-NMR (T = 1 month, 40° C./75% RH): 96% ^w/w % w/w
Impurities by HPLC: RRT 0.86 (T = 1 month, 40° C./75% RH): 0.05%
Impurities by HPLC: RRT 1.46 (T = 1 month, 40° C./75% RH): 0.10%
Impurities by HPLC: RRT 1.59 (Psilocin) (T = 1 month, 40° C./75% RH): 0.34%
Chemical Purity By HPLC (T = 1 month, 40° C./75% RH): 99.23%
Total Impurities (T = 1 month, 40° C./75% RH): 0.77%
Water content by loss on drying (T = 1 month, 40° C./75% RH): 0.14% ^w/w % w/w
Appearance (T = 3 months, 2-8° C.): An off white solid.
Assay by 1H-NMR (T = 3 months, 2-8° C.): 97% ^w/w % w/w
Impurities by HPLC: RRT 0.86 (T = 3 months, 2-8° C.): < 0.05%
Impurities by HPLC: RRT 1.46 (T = 3 months, 2-8° C.): 0.10%
Impurities by HPLC: RRT 1.59 (Psilocin) (T = 3 months, 2-8° C.): 0.37%
Chemical Purity By HPLC (T = 3 months, 2-8° C.): 99.31%
Total Impurities (T = 3 months, 2-8° C.): 0.69%
Water content by loss on drying (T = 3 months, 2-8° C.): 0.26% ^w/w % w/w
Appearance (T = 3 months, 25° C./60% RH): An off white solid.
Assay by 1H-NMR (T = 3 months, 25° C./60% RH): 99% ^w/w % w/w
Impurities by HPLC: RRT 0.86 (T = 3 months, 25° C./60% RH): < 0.05%
Impurities by HPLC: RRT 1.46 (T = 3 months, 25° C./60% RH): 0.09%
Impurities by HPLC: RRT 1.59 (Psilocin) (T = 3 months, 25° C./60% RH): 0.36%
Chemical Purity By HPLC (T = 3 months, 25° C./60% RH): 99.27%
Total Impurities (T = 3 months, 25° C./60% RH): 0.73%
Water content by loss on drying (T = 3 months, 25° C./60% RH): 0.08% ^w/w % w/w
Appearance (T = 3 months, 40° C./75% RH): An off white solid.
Assay by 1H-NMR (T = 3 months, 40° C./75% RH): 97% ^w/w % w/w
Impurities by HPLC: RRT 0.86 (T = 3 months, 40° C./75% RH): < 0.05%
Impurities by HPLC: RRT 1.46 (T = 3 months, 40° C./75% RH): 0.10%
Impurities by HPLC: RRT 1.59 (Psilocin) (T = 3 months, 40° C./75% RH): 0.37%
Chemical Purity By HPLC (T = 3 months, 40° C./75% RH): 99.26%
Total Impurities (T = 3 months, 40° C./75% RH): 0.74%
Water content by loss on drying (T = 3 months, 40° C./75% RH): 0.14% ^w/w % w/w

From patent US12662498B2 (priority 2017, dated 2026)
